# PubChem BioAssay AID489006 (Sanford-Burnham Center for Chemical Genomics, 2010)
# Active and inactive are the calls of the source. No rule for the calls is given here.
# Tested on: Jurkat NF-kB reporter, luminescence
# Experiment: NF-kB reporter inhibition in Jurkat cells, dose response, selectivity assay for B-cell receptor NF-kB inhibitor project, cell-based, luminescence (AID 489006)
row,SMILES,IC50
1,Cc1cc(OCC(=O)Nc2ccc(CCO)cc2)c2c(C)c(C)c(=O)oc2c1,> 80 µM (inactive)
2,CCOc1ccc(-c2nnc(SCC(=O)NC3CC3)o2)cc1,54.2 µM (inactive)
3,Cc1nnc2c3ccccc3c(-c3ccccc3)nn12,> 80 µM (inactive)
4,O=C(CCl)N(c1ccc(Cl)cc1)c1c[nH]c2ccccc12,0.85 µM
5,Cc1cc(C)c2nc(NC(=O)C3CSC4(C)CCC(=O)N34)sc2c1 (stereo not drawn),76.5 µM (inactive)
6,COc1ccc(NS(=O)(=O)c2cc(NC(=O)c3cc(=O)c4ccccc4o3)ccc2OC)cc1,> 80 µM (inactive)
7,COc1ccc(-n2ncc3c(N4CCC(C(N)=O)CC4)ncnc32)cc1,> 80 µM (inactive)
8,CCOC(=O)Cc1csc(NC(=S)NC(=O)c2ccc(Cl)cc2)n1,3.85 µM
9,CCOC(=O)c1cc2c(=O)n3ccccc3nc2n(CC(C)C)c1=NC(=O)c1c(-c2c(F)cccc2Cl)noc1C,> 80 µM (inactive)
10,CN1CCN(C(=O)c2ccccc2N(Cc2ccccc2)S(=O)(=O)c2ccccc2)CC1,> 80 µM (inactive)
11,Cc1csc(NC(=O)CCc2c(C)nc3cc(-c4ccc(Cl)cc4)nn3c2C)n1,0.36 µM
12,COc1ccccc1/C=C1/SC(=S)N(CCC(=O)Nc2cccnc2)C1=O,> 80 µM (inactive)
13,CCOc1ccc(/C=C2\SC(=S)N(CCCC(=O)NCCCN3CCOCC3)C2=O)cc1,0.52 µM
14,COc1ccc(-c2ccc(F)cc2)cc1[C@H]1[C@H]2C=CC[C@@H](C)[C@@H]2C(=O)N1Cc1ccccc1,> 80 µM (inactive)
15,C(=N\Nc1nc(Nc2ccccc2)nc(N2CCOCC2)n1)/c1c[nH]c2ccccc12,37.7 µM (inactive)
16,O=C(CN1C(=O)c2ccccc2S1(=O)=O)c1ccc(Cl)cc1Cl,0.78 µM
17,CC(C)c1ccc(/C=C2\SC(=S)N(CCC(=O)N3CCCCC3CCO)C2=O)cc1 (stereo not drawn),0.33 µM
18,COc1cc(OC)cc(-c2cc3nc(C)c(CCC(=O)NCc4ccccc4)c(C)n3n2)c1,2.75 µM
19,C/C=C(/C)C(=O)OC1Cc2c(ccc3ccc(=O)oc23)OC1(C)C (stereo not drawn),> 80 µM (inactive)

row,SMILES,IC50
1,O=C(c1cc2nc(-c3ccccc3)cc(-c3ccccc3)n2n1)N1CCN(C(=O)c2ccco2)CC1,31 µM (inactive)
2,CCN(CC)c1ccc(/C=N/N=C(c2ccccc2)c2ccccc2)c(O)c1,> 80 µM (inactive)
3,Cc1c(CCC(=O)N2CCC(C(=O)O)CC2)c(=O)oc2cc3oc4c(c3cc12)CCCC4,> 80 µM (inactive)
4,N=c1ccn2c(n1)OC1C(O)C(CO)OC12 (stereo not drawn),2.21 µM
5,Cc1ccc(-c2cc(C(=O)NCCCN3CCOCC3)no2)cc1,15.2 µM
6,Cc1nc2ccccn2c1C(=O)/C=C/c1cccc([N+](=O)[O-])c1,4.57 µM
7,C=CCn1c(O)c(C(C)=NC(C)c2ccccc2)c(=O)[nH]c1=O (stereo not drawn),> 80 µM (inactive)
8,CCOC(=O)N1CCN(CC(=O)Nc2ccc([N+](=O)[O-])cc2C(=O)Nc2ccccc2F)CC1,33.1 µM (inactive)
9,CCN1C(=O)c2cccc3c(NC(=O)c4cccc(N5C(=O)CCC5=O)c4)ccc1c23,> 80 µM (inactive)
10,CC(C)(C)c1ccc(-c2noc(CCC(=O)NCC3CCCO3)n2)cc1 (stereo not drawn),0.23 µM
11,CCC(C)[C@H](N)c1nnc(SCC(=O)c2ccc(Cl)cc2)o1 (stereo partly drawn),72.9 µM (inactive)
12,C=CCOc1ccc(NC(=O)C(=O)NCCCn2ccnc2)cc1,> 80 µM (inactive)
13,O=C(NCCCN1CCOCC1)c1cc(-c2ccc(Br)cc2)on1,59.5 µM (inactive)
14,CCn1c(=O)cc(OCC(=O)Nc2ccc(OC)c(OC)c2)c2ccccc21,> 80 µM (inactive)
15,CCN(CC(=O)Nc1c(F)cccc1F)C(=O)C1(c2ccccc2)CC1,> 80 µM (inactive)
16,CCN(CC)S(=O)(=O)c1ccc(N2CCOCC2)c(NC(=O)c2[nH]c(C)c(C(C)=O)c2C)c1,47 µM (inactive)
17,Cc1cc(=O)[nH]c2c(C)cc(S(=O)(=O)N3CCCCC3)cc12,> 80 µM (inactive)
18,COc1ccc(-n2c(-c3ccc(Cl)cc3)c[n+]3c2CCc2ccccc2-3)cc1,28.6 µM (inactive)
19,COc1cc(-c2[nH]nc3c2C(c2ccco2)C(C#N)=C(N)O3)cc(OC)c1OC (stereo not drawn),61 µM (inactive)
